From ChEMBL document CHEMBL1131172 (J Med Chem, 1998)
Blank lines part the entries; values can stand above or below the molecule they belong to.

Legend:
[1] = target: T1, Bifunctional dihydrofolate reductase-thymidylate synthase (Toxoplasma gondii, UniProt Q07422)
T1 sequence (Q07422 whole entry): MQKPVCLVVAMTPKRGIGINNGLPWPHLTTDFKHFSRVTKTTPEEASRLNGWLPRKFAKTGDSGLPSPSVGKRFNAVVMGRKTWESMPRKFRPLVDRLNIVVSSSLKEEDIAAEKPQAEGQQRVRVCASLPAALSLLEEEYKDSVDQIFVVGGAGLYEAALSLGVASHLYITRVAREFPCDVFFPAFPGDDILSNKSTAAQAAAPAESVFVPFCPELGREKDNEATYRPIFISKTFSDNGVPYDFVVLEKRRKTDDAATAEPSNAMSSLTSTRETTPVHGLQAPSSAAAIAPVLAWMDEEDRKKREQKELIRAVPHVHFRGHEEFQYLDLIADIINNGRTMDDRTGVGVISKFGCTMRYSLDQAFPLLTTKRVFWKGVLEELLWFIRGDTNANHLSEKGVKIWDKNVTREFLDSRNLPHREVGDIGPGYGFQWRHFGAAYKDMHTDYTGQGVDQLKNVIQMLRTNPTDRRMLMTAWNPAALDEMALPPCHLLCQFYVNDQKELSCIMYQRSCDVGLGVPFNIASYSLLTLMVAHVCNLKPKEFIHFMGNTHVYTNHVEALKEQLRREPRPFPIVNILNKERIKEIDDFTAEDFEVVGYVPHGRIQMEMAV
Description: Inhibitory activity against dihydrofolate reductase (DHFR) from Toxoplasma gondii

[2] = target: T2, Dihydrofolate reductase (Rattus norvegicus, UniProt Q920D2)
T2 sequence (Q920D2 whole entry): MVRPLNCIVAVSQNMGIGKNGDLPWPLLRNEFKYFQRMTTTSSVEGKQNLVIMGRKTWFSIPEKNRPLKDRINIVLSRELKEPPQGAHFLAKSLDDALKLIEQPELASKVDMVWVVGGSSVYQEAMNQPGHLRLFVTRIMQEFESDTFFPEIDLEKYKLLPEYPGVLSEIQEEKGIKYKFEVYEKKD
Description: Inhibitory activity against dihydrofolate reductase (DHFR) from rat liver

[3] = target: T3, Dihydrofolate reductase (Pneumocystis carinii, UniProt P16184)
T3 sequence (P16184 whole entry): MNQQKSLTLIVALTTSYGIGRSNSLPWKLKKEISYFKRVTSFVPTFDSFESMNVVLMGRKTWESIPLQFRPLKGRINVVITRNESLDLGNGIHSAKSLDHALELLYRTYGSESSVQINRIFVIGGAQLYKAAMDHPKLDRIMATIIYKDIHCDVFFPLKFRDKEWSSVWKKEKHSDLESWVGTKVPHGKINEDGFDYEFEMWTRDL
Description: Inhibitory activity against dihydrofolate reductase (DHFR) from Pneumocystis carinii

[4] = system: HCT-15; assay: inhibition of the growth of colon cancer(HCT-15) cell line; type: functional; conditions: Homo sapiens
[5] = system: MOLT-4; assay: Inhibition of the growth of leukemia (MOLT-4) cell line at 0.01 uM; type: functional; conditions: Homo sapiens
[6] = system: A549; assay: Inhibition of the growth of non-small-cell lung cancer (A549/ATCC) cell line at 0.01 uM; type: functional; conditions: Homo sapiens
[7] = system: DU-145; assay: inhibition of the growth of prostate cancer(DU-145) cell line; type: functional; conditions: Homo sapiens
[8] = system: NCI/ADR-RES; assay: inhibition of the growth of breast cancer (MCF7/ADR-RES) cell line; type: functional; conditions: Homo sapiens
[9] = system: RPMI-8226; assay: Inhibition of the growth of leukemia (RPMI-8226) cell line at 0.01 uM; type: functional; conditions: Homo sapiens
[10] = system: NCI-H23; assay: Inhibition of the growth of non-small-cell lung cancer (NCI-H23) cell line at 0.01 uM; type: functional; conditions: Homo sapiens
[11] = system: NCI/ADR-RES; assay: Inhibition of the growth of breast cancer (MCF7/ADR-RES) cell line at 0.01 uM; type: functional; conditions: Homo sapiens
[12] = system: MDA-MB-435; assay: Inhibition of the growth of breast cancer (MDA-MB-435) cell line at 0.01 uM; type: functional; conditions: Homo sapiens
[13] = system: HCT-15; assay: Inhibition of the growth of colon cancer(HCT-15) cell line at 0.01 uM; type: functional; conditions: Homo sapiens
[14] = system: NCI-H322M; assay: Inhibition of the growth of non-small-cell lung cancer (NCI-H322M) cell line at 0.01 uM; type: functional; conditions: Homo sapiens
[15] = system: NCI-H322M; assay: inhibition of the growth of non-small-cell lung cancer (NCI-H322M) cell line; type: functional; conditions: Homo sapiens
[16] = system: OVCAR-8; assay: Inhibition of the growth of ovarian cancer(OVCAR-8) cell line at 0.01 uM; type: functional; conditions: Homo sapiens
[17] = system: SK-MEL-5; assay: Inhibition of the growth of melanoma cancer (SK-MEL-5) cell line at 0.01 uM; type: functional; conditions: Homo sapiens
[18] = system: OVCAR-8; assay: inhibition of the growth of ovarian cancer(OVCAR-8) cell line; type: functional; conditions: Homo sapiens
[19] = system: NCI-H460; assay: Inhibition of the growth of non-small-cell lung cancer (NCI-H460) cell line at 0.01 uM; type: functional; conditions: Homo sapiens
[20] = system: CAKI-1; assay: inhibition of the growth of renal cancer(CAKI-1) cell line; type: functional; conditions: Homo sapiens
[21] = system: NCI-H522; assay: Inhibition of the growth of non-small-cell lung cancer (NCI-H522) cell line at 0.01 uM; type: functional; conditions: Homo sapiens
[22] = system: SF-295; assay: Inhibition of the growth of CNS cancer(SF-295) cell line at 0.01 uM; type: functional; conditions: Homo sapiens
[23] = system: CAKI-1; assay: Inhibition of the growth of renal cancer(CAKI-1) cell line at 0.01 uM; type: functional; conditions: Homo sapiens
[24] = system: MOLT-4; assay: Inhibition of the growth of leukemia (MOLT-4) cell line; type: functional; conditions: Homo sapiens
[25] = system: UO-31; assay: inhibition of the growth of renal cancer(UO-31) cell line; type: functional; conditions: Homo sapiens
[26] = system: SF-539; assay: inhibition of the growth of CNS cancer(SF-539) cell line; type: functional; conditions: Homo sapiens
[27] = system: M14; assay: inhibition of the growth of melanoma cancer (M14) cell line; type: functional; conditions: Homo sapiens
[28] = system: SNB-19; assay: inhibition of the growth of CNS cancer(SNB-19) cell line; type: functional; conditions: Homo sapiens
[29] = system: M14; assay: Inhibition of the growth of melanoma cancer (M14) cell line at 0.01 uM; type: functional; conditions: Homo sapiens
[30] = system: UO-31; assay: Inhibition of the growth of renal cancer(UO-31) cell line at 0.01 uM; type: functional; conditions: Homo sapiens
[31] = system: SF-268; assay: Inhibition of the growth of CNS cancer(SF-268) cell line at 0.01 uM; type: functional; conditions: Homo sapiens
[32] = system: SR; assay: Inhibition of the growth of leukemia(SR) cell line; type: functional; conditions: Homo sapiens
[33] = system: SF-295; assay: inhibition of the growth of CNS cancer(SF-295) cell line; type: functional; conditions: Homo sapiens
[34] = system: 786-0; assay: inhibition of the growth of renal cancer(786-0) cell line; type: functional; conditions: Homo sapiens
[35] = system: NCI-H460; assay: inhibition of the growth of non-small-cell lung cancer (NCI-H460) cell line; type: functional; conditions: Homo sapiens
[36] = system: HCT-116; assay: inhibition of the growth of colon cancer(HCT116) cell line; type: functional; conditions: Homo sapiens
[37] = system: IGROV-1; assay: inhibition of the growth of ovarian cancer(IGROVI) cell line; type: functional; conditions: Homo sapiens
[38] = system: MDA-N; assay: inhibition of the growth of breast cancer(MDA-N) cell line; type: functional; conditions: Homo sapiens
[39] = system: SK-MEL-5; assay: inhibition of the growth of melanoma cancer (SK-MEL-5) cell line; type: functional; conditions: Homo sapiens
[40] = system: SR; assay: Inhibition of the growth of leukemia(SR) cell line at 0.01 uM; type: functional; conditions: Homo sapiens
[41] = system: SNB-19; assay: Inhibition of the growth of CNS cancer(SNB-19) cell line at 0.01 uM; type: functional; conditions: Homo sapiens
[42] = system: MCF7; assay: Inhibition of the growth of breast cancer (MCF-7) cell line at 0.01 uM; type: functional; conditions: Homo sapiens
[43] = system: KM12; assay: inhibition of the growth of colon cancer(KM-12) cell line; type: functional; conditions: Homo sapiens
[44] = system: A549; assay: inhibition of the growth of non-small-cell lung cancer (A549/ATCC) cell line; type: functional; conditions: Homo sapiens
[45] = system: KM12; assay: Inhibition of the growth of colon cancer(KM-12) cell line at 0.01 uM; type: functional; conditions: Homo sapiens
[46] = system: MCF7; assay: inhibition of the growth of breast cancer (MCF-7) cell line; type: functional; conditions: Homo sapiens
[47] = system: NCI-H23; assay: Inhibition of the growth of non-small-cell lung cancer (NCI-H23) cell line; type: functional; conditions: Homo sapiens
[48] = system: 786-0; assay: Inhibition of the growth of renal cancer(786-0) cell line at 0.01 uM; type: functional; conditions: Homo sapiens
[49] = system: NCI-H522; assay: inhibition of the growth of non-small-cell lung cancer (NCI-H522) cell line; type: functional; conditions: Homo sapiens
[50] = system: SF-539; assay: Inhibition of the growth of CNS cancer(SF-539) cell line at 0.01 uM; type: functional; conditions: Homo sapiens
[51] = system: DU-145; assay: Inhibition of the growth of prostate cancer(DU-145) cell line at 0.01 uM; type: functional; conditions: Homo sapiens
[52] = system: MDA-N; assay: Inhibition of the growth of breast cancer(MDA-N) cell line at 0.01 uM; type: functional; conditions: Homo sapiens
[53] = system: IGROV-1; assay: Inhibition of the growth of ovarian cancer(IGROVI) cell line at 0.01 uM; type: functional; conditions: Homo sapiens
[54] = system: RPMI-8226; assay: Inhibition of the growth of leukemia (RPMI-8226) cell line; type: functional; conditions: Homo sapiens
[55] = system: SF-268; assay: inhibition of the growth of CNS cancer(SF-268) cell line; type: functional; conditions: Homo sapiens
[56] = system: HCT-116; assay: Inhibition of the growth of colon cancer(HCT116) cell line at 0.01 uM; type: functional; conditions: Homo sapiens
[57] = system: MDA-MB-435; assay: inhibition of the growth of breast cancer (MDA-MB-435) cell line; type: functional; conditions: Homo sapiens

IC50 [2]: 1400 nM
SMILES: COc1cc(CNc2ccc3nc(N)nc(N)c3n2)cc(OC)c1OC
IC50 [1]: 490 nM

IC50 [2]: 260 nM
SMILES: COc1ccccc1Nc1ccc2nc(N)nc(N)c2n1
IC50 [1]: 460 nM

IC50 [3]: 3200 nM | IC50 [2]: 1400 nM
SMILES: COc1ccccc1S(=O)(=O)c1ccc2nc(N)nc(N)c2n1
IC50 [1]: 210 nM

IC50 [3]: 2700 nM | IC50 [2]: 880 nM
SMILES: COc1ccc(S(=O)(=O)c2ccc3nc(N)nc(N)c3n2)cc1OC
IC50 [1]: 940 nM

IC50 [3]: 15000 nM | IC50 [2]: 2000 nM
SMILES: Nc1nc(N)c2nc(Nc3ccc4ccccc4c3)ccc2n1
IC50 [1]: 1100 nM

IC50 [2]: 2000 nM
SMILES: COc1ccc(S(=O)(=O)c2ccc3nc(N)nc(N)c3n2)cc1
IC50 [1]: 1000 nM

IC50 [3]: 2200 nM | IC50 [2]: 230 nM
SMILES: COc1ccccc1Sc1ccc2nc(N)nc(N)c2n1
IC50 [1]: 58 nM

IC50 [2]: 3600 nM
SMILES: COc1ccc(OC)c(Nc2ccc3nc(N)nc(N)c3n2)c1
IC50 [1]: 730 nM

GI50 [4]: < 10 nM | GI50 [7]: < 10 nM | GI50 [15]: < 10 nM | GI50 [18]: < 10 nM | IC50 [3]: 34 nM | GI50 [24]: < 10 nM | GI50 [34]: < 10 nM | GI50 [35]: < 10 nM | GI50 [36]: < 10 nM | GI50 [39]: < 10 nM | GI50 [44]: < 10 nM | IC50 [2]: 4.2 nM | GI50 [46]: < 10 nM | GI50 [47]: < 10 nM | GI50 [49]: < 10 nM | GI50 [54]: < 10 nM | GI50 [57]: < 10 nM
SMILES: COc1ccc(OC)c(N(C)c2ccc3nc(N)nc(N)c3n2)c1
inhibition at 0.01 µM [5]: 54% | inhibition at 0.01 µM [6]: 72% | GI50 [8]: < 10 nM | inhibition at 0.01 µM [9]: 68% | inhibition at 0.01 µM [10]: 78% | inhibition at 0.01 µM [11]: 82% | inhibition at 0.01 µM [12]: 70% | inhibition at 0.01 µM [13]: 70% | inhibition at 0.01 µM [14]: 58% | inhibition at 0.01 µM [16]: 75% | inhibition at 0.01 µM [17]: 76% | inhibition at 0.01 µM [19]: 82% | GI50 [20]: < 10 nM | inhibition at 0.01 µM [21]: 67% | inhibition at 0.01 µM [22]: 69% | inhibition at 0.01 µM [23]: 70% | GI50 [25]: < 10 nM | GI50 [26]: < 10 nM | GI50 [27]: < 10 nM | GI50 [28]: < 10 nM | inhibition at 0.01 µM [29]: 61% | inhibition at 0.01 µM [30]: 100% | inhibition at 0.01 µM [31]: 57% | GI50 [32]: < 10 nM | GI50 [33]: < 10 nM | GI50 [37]: < 10 nM | GI50 [38]: < 10 nM | IC50 [1]: 41 nM | inhibition at 0.01 µM [40]: 68% | inhibition at 0.01 µM [41]: 73% | inhibition at 0.01 µM [42]: 58% | GI50 [43]: < 10 nM | inhibition at 0.01 µM [45]: 55% | inhibition at 0.01 µM [48]: 55% | inhibition at 0.01 µM [50]: 65% | inhibition at 0.01 µM [51]: 57% | inhibition at 0.01 µM [52]: 59% | inhibition at 0.01 µM [53]: 66% | GI50 [55]: < 10 nM | inhibition at 0.01 µM [56]: 83%
